Consider one molecule from publication PMC5766510, “Development of a PET radioligand for potassium channels to image CNS demyelination” (Scientific Reports, 2018).

Data set [1] has as its system voltage-gated K^+ channels. The data set can be described thus: PET/CT imaging in healthy rats. Type of data set: in vivo, rat. As to conditions: rats. The source says: In order to evaluate the potential use of [^18F]3-F-4-AP as a PET tracer for the brain, we conducted PET combined with computed tomography (PET/CT) imaging in healthy rats after tail vein injection of [^18F]3-F-4-AP (0.15–0.30 μCi/g). We chose rats instead of mice because their larger brain size allows better spatial resolution. […] In order to overcome the limited intrinsic resolution of PET, we conducted ex vivo autoradiography in rats injected with [^18F]3-F-4-AP (1–2 μCi/g).
PET/CT imaging studies were carried out on a Trifoil Triumph™ Trimodality Preclinical microPET/SPECT/CT Imaging System (Norridge, CA) equipped with a X-PET detector constructed from BGO crystals. Rats were anesthetized with a mixture of 2% isoflurane and […] and kept under anesthesia throughout the whole procedure. A CT image was acquired first (at 40 kV, 140-uA beam current, and 256 projections, approx. 5 min). After the CT, 50–150 µCi of [^18F]3-F-4-AP was infused as a bolus through a tail vein injection port and a 25, 30 or 90 min list-mode PET scan performed. PET data are acquired using a sensitivity 5.9%, 250- to 750-keV energy window and 12-ns timing window in list-mode format with spatial resolution of 1.6–2.0 mm (FWHM), which can be binned into 3-dimensional (3D) sinograms corresponding to total and true events, respectively. Images were reconstructed using Fourier rebinning followed by a 2-dimensional ordered-subsets expectation maximization algorithm (OSEM) (4 iterations with 15 subsets). Reconstructed images were processed by using VivoQuant (inviCRO, LLC, Boston) version 2.1. Time activity curves were generated by processing the PET data in 5 min frames.

The nature of data set [2]: Partition coefficient octanol-water (logD). Type of data set: physicochemical. As to conditions: pH 7.4, pH 7.4, n = 3; read-out: logD: experimental partition coefficient octanol:water. On the procedure: The partition coefficient octanol-water at pH 7.4 was measured by adding 0.1 mg of the compound to a 10 mL 50:50 mixture of octanol:PBS. The vial was shaken vigorously followed by 1 min centrifugation at 1,000 g to separate the phases. The drug concentration in each phase of the drug was calculated from the area under the peak on reverse phase HPLC (10 μL sample) using a calibration curve.

A short description of data set [3]: in vitro. The conditions noted are these: mouse, microsomes.
The nature of data set [4]: Stability in mouse plasma. As to conditions: after 1 h.
The subject of data set [5] is C57Bl/6 J mice. In words: In vivo effects (signs of neuroexcitation) after intraperitoneal injection. As to conditions: mouse, different doses. On the procedure: In this experiment, we injected each drug intraperitoneally at different concentrations into mice and looked for signs of neuroexcitation (Fig. 3B).
10-week-old female C57Bl/6 J mice were given an intraperitoneal injection of the drug under investigation and monitored continuously for 4 h. […] At least 72 h passed between injections to the same mice.

The target of data set [6] is non-inactivating Shaker channel from D. melanogaster (Drosophila melanogaster, UniProt P08510, DEL6-46). In words: cell-based. The conditions noted are these: relative K^+ current at +20 mV, Hill equation fit; read-out: Half-maximal inhibitory concentration (IC50). The method, then: See SI for additional details.
Chain of non-inactivating Shaker channel from D. melanogaster (P08510 other isoform, or with tags, fused parts or gaps DEL6-46): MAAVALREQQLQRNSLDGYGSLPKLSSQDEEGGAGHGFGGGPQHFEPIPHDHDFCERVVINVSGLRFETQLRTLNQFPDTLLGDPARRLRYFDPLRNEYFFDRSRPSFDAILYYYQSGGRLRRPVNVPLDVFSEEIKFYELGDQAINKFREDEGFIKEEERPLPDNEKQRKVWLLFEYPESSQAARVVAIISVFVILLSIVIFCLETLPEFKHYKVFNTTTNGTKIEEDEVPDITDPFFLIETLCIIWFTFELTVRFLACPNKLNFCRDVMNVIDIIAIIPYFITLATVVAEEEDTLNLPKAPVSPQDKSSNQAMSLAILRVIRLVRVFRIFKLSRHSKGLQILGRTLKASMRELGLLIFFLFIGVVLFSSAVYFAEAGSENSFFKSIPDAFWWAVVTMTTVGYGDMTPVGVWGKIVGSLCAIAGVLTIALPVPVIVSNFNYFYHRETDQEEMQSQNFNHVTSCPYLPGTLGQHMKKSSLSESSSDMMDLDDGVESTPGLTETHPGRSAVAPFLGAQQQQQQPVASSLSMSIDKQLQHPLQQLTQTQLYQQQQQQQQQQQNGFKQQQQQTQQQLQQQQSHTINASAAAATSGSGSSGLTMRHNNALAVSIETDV

(§1) CI95 = [Upper Limit. Lower Limit]; where Upper Limit = 10^(logEC50+s.d.) and Lower Limit = 10^(logEC50−s.d.). […]
exchanging the external solution (top and guard chambers) several times. After application, cells were voltage-clamped at least 5 min at 0mV, then voltage-clamped at -80mV for 1-2 min.
K+ currents were generated by applying series of 50 ms pulses from -70 mV to +40 mV in increments of 10 mV. The effect of the drug was assessed by measuring the relative intensity of the K+ current before and after applying varying drug concentration at a constant voltage (typically +20 mV) and at the end of the test-pulse. Data acquisition and analysis of the traces was performed using Gpatch software (Department of Anesthesiology, University of California, […]
Los Angeles). […]

The subject of data set [7] is K^+ channels in explanted mouse optic nerves. In words: Compound action potential (CAP) of dissected mouse optic nerves. As to conditions: increase of maximum CAP amplitude, dysmyelinated (Shiverer) optic nerves, 22.2 °C; read-out: Half-maximal effective concentration (EC50). The method, then:
Therefore, we tested the effects of these compounds on the compound action potential (CAP) of dysmyelinated optic nerves from control and Shiverer mice (Fig. 2E).
Optic nerves were dissected from 12–16 week old Shiverer (Mbp^shi/shi) and control mice (Mbp^+/shi and Mbp^+/+). Compound action potentials (CAP) were recorded using suction electrodes as described by Stys et al.[91]. See SI for additional details.
as §1
Dissection of optic nerves: Optic nerves were dissected from 12-16 week old Shiverer (Mbpshi/shi) and control mice (Mbp+/shi and Mbp+/+). Mice were euthanized by CO2 overdose and the optic nerves were quickly dissected between the eyeball and the optic chiasm. The nerves […]
Optic nerve electrophysiology: Compound action potentials (CAP) from dysmyelinated nerves (Shiverer mice, Mbpshi/shi) and myelinated nerves (litermate controls, Mbp+/shi and Mbp+/+) were […]
between two suction electrodes (stimulus and recording electrodes) forming a tight seal on each end. Two additional electrodes were placed in the bath for reference. A supramaximal pulse (250 mV, 20 μs) was applied at the stimulating end of the nerve. The resulting CAP was amplified from the recording electrode using a high impedance low-noise amplifier (EG&G Princeton Applied Research Corporation) sampled at 100 kHz and filtered at 10 kHz. To assess […]
concentrations to the recording chamber after the CAP was allowed to stabilize for 5 min while […]
pulsing repeatedly. After each measurement, the chamber was washed for 5 min (flow 1 […]
mL/min) with oxygenated aCSF. […]
conduction and the temperature was monitored throughout the experiment. CAP recordings were acquired with a SBC6711 board (Innovative Integration) controlled by in-house written software. Analysis of the traces was done using an in-house software. The half-maximal […]
amplitude vs. concentration and fitted to the Hill equation using Origin. […]
Compound action potential of nerve recorded by suction electrode: a theoretical and experimental analysis. […]

Data set [8] is described as follows: Parallel artificial membrane permeability assay (PAMPA). In general terms: In PAMPA a lipid-coated filter parts donor from acceptor wells.
The subject of data set [9] is voltage-gated K^+ channels. In words: PET imaging in healthy Rhesus macaques. Type of data set: in vivo, Rhesus monkeys (macaca mulatta). The method, then: Whole body PET/CT imaging was carried out on a Siemens mCT PET/CT. Monkeys were sedated with ketamine and intubated. Following intubation monkeys were placed in prone position on the scanner bed face forward with their head immobilized in a stereotaxic frame. The animals were then anesthetized with 1% isoflurane and kept under anesthesia throughout the whole procedure. A CT image was acquired first (approx. 5 min). After the CT, 5 mCi in 8 mL of saline of [^18F]3-F-4-AP was infused as a bolus through the cubital vein. Scans were obtained in list mode and reconstructed with a 3D ordinary Poisson OSEM algorithm as 30 frames of data (2 × 15 secs, 4 × 30 secs, 8 × 60 secs, 8 × 120 secs, 8 × 240 secs). All activities were decay-corrected to the time of injection of the radiopharmaceutical. Reconstructed images were processed using VivoQuant. ROIs for the major organs were hand drawn based on the CT and used to calculate time-activity curves.
Focused high-resolution brain imaging in Rhesus macaques: brain PET imaging was carried out on a Siemens HRRT PET scanner. Monkeys were sedated with ketamine and intubated. Following intubation monkeys were placed in prone position on the scanner bed face forward with their head immobilized in a stereotaxic frame. The animals were then anesthetized with 1% isoflurane and kept under anesthesia throughout the whole procedure. Monkeys received 5 mCi of [^18F]3-F-4-AP as a bolus through the cubital vein. Scans were obtained in list mode and reconstructed with a 3D ordinary Poisson OSEM algorithm as […] frames of data (8 × 15 secs, 8 × 30 secs, 16 × 60 secs, 16 × 120 secs, 16 × 240 secs). All activities were decay-corrected to the time of injection of the radiopharmaceutical. Reconstructed images were processed using VivoQuant. The Rhesus brain atlas from VivoQuant was fitted to the data and used to calculate time-activity curves for 43 different brain regions.

As for `Nc1ccncc1F` [3-F-4-AP, 3-fluoro-4-aminopyridine], the “effect of high doses of non-radiolabeled drug (self-block)” value in [1] is given as “caused the breathing rate to increase dramatically, possibly due to seizures”. Besides, the logD in data set [2] turned out to be 0.63. This molecule also displayed a half-life in data set [3] of 2.4 ± 0.183 h. Further, the remaining in plasma in data set [4] is greater than 90%. For the same molecule, the “signs of neuroexcitation, summary in words relative to 4-AP” value in [5] is “active at the same concentration as 4-AP and to act faster”. Also, in [6], the IC50 is 250 µM. For the same molecule, in data set [7], the EC50 stood at 96 µM. In addition, the Papp in data set [8] (PAMPA) amounted to 1.56 ± 0.06 ×10⁻⁶ cm/s. In addition, the “times more permeable than 4-AP” value in data set [8] (ratio of Pe) turned out to be 6.6 times. The “effect of cold drug (self-block) on brain signal” value in [9] (Rhesus macaques, 0.1 mg/kg) was “no changes in brain signal or time activity curves were detected”. In data set [9] (estimated based on the rodent data), the “estimated seizure dose in monkeys” value was 1.5 to 3.0 mg/kg.

In general, logD refers to lipophilicity at a set pH, counting ionised and neutral species. In general, half-life refers to the time in which the quantity being followed falls by half. As usually defined, the Papp is the rate of passage across a membrane or cell layer, normalised by area and donor concentration. Low values mean slow passage, high ones fast passage.
